pEC50, pIC50: −log10 of the molar value. Structures can show the parent of a compound that is named as a salt. Where two headings read alike, the source gives them in different places.
Experiments:
PDK1 = PDK1 (Homo sapiens (Human), UniProt O15530); assay: PDK1 kinase assay (coupled PDK1/AKT/FAM-crosstide assay, IMAP fluorescence polarization); assay type: biochemical
Method in brief: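 Coupled cascade: 0.75 nM PDK1 (51-359) → 10 nM AKT2 (140-467-PIFtide) → 100 nM FAM-crosstide. ATP 40 μM, 25° C, 30 min. IMAP FP (ex 485/em 530), 2 h binding. ΔmP vs conc, 4-param fit.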

[1] = system: phospho-akt (Thr308) in PC-3 cells; assay: Inhibition of phospho-akt (Thr308) in PC-3 cells, MSD phospho-akt 308 ELISA kit; assay type: cell-based; details: Homo sapiens, 2 hours, no serum, read-out: EC50
Method in brief: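 Read-out is MSD electrochemiluminescence of Akt phosphorylated at Thr308 in lysates of PC-3 cells treated 2 h with compound in serum-free medium. Wortmannin at 5 μM defined the low control and DMSO the high control.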

[2] = inhibition of P308 Akt in PC-3 cells using MSD
[3] = inhibition of phospo-PDK1 in vitro
[4] = inhibition of P308 Akt in PC-3 cells, MSD
[5] = PC-3, 2 h, inhibition of P308 Akt in PC-3 cells, MSD

PDK1, sequence (O15530 51-359): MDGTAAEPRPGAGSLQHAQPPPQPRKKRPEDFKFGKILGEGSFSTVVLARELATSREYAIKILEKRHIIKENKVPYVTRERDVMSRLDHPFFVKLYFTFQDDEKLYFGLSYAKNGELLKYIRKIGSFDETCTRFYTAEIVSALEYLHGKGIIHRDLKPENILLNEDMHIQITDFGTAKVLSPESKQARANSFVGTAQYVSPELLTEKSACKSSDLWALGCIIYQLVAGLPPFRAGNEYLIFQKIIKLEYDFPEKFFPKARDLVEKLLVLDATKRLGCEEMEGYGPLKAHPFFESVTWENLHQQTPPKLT

| pIC50 (PDK1; inhibition of PDK1 in vitro) | pEC50 [1, 2] | pIC50 (PDK1; [3]) | pEC50 [1, 4] | Compound | further results |
| --- | --- | --- | --- | --- | --- |
| > 7.00 | > 6.00 |  |  | C[C@H](NC(=O)c1cc(C#N)cnc1NCc1ccc(-c2cnc(N)c(C(=O)NCCO)n2)cc1)c1ccc(F)cc1 [Example 215, (S)-3-amino-6-(4-((5-cyano-3-(1-(4-fluorophenyl)ethylcarbamoyl)pyridin-2-ylamino)methyl)phenyl)-N-(2-hydroxyethyl) pyrazine-2-carboxamide] |  |
|  |  | 6.00 to 7.00 | > 6.00 | C[C@H](NC(=O)c1nc(C#N)cnc1NCc1ccc(-c2ccc3ncnc(N)c3c2)s1)c1ccc(F)c(F)c1 [Ex. 10.9, 3-({[5-(4-aminoquinazolin-6-yl)thiophen-2-yl]methyl}amino)-6-cyano-N-[(1S)-1-(3,4-difluorophenyl)ethyl] pyrazine-2-carboxamide] |  |
|  |  | > 7.00 | > 6.00 | O=C(NCc1ccc(F)c(F)c1)c1cc(C(F)(F)F)cnc1NCc1ccc(-c2cnc3[nH]ncc3c2)cc1 [Example 2.37] |  |
|  |  | < 5.30 | < 5.00 | CC(C)Oc1cc(CNc2ncccc2C(=O)NCC(F)(F)F)cc(-c2c[nH]c3ncc(C(=O)NC4CC4)cc23)c1 [Example 4.1.5, N-cyclopropyl-3-{3-(propan-2-yloxy)-5-[({3-[(2,2,2-trifluoroethyl)carbamoyl]pyridin-2-yl}amino)methyl]phenyl}-1H-pyrrolo[2,3-b] pyridine-5-carboxamide] |  |
| > 7.00 | > 6.00 |  |  | C[C@H](NC(=O)c1nc(C#N)cnc1NCc1ccc(-c2cnc(N)c(CC3CCNC3)n2)cc1)c1ccc(F)c(F)c1 (stereo partly drawn) [Example 187, 3-[4-(5-Amino-6-pyrrolidin-3-ylmethyl-pyrazin-2-yl)-benzylamino]-6-cyano-pyrazine-2-carboxylic acid [(S)-1-(3,4-difluoro-phenyl)-ethyl]-amide] |  |
|  |  | > 7.00 | < 5.00 | Nc1ncnc2ccc(-c3ccc(CNc4ncccc4C(=O)NCc4cc(F)c(F)cc4F)s3)cc12 [Example 3.11, 2-({[5-(4-aminoquinazolin-6-yl)thiophen-2-yl]methyl}amino)-N-(2,4,5-trifluorobenzyl)pyridine-3-carboxamide (TFA salt)] |  |
|  |  | 6.00 to 7.00 |  | Nc1ncnc2ccc(-c3ccc(CNc4ncc(NC(=O)C5CCCC5)cc4C(=O)NCc4ccc(F)c(F)c4)s3)cc12 [Example 8.5.5, 2-({[5-(4-aminoquinazolin-6-yl)thiophen-2-yl]methyl}amino)-5-[(cyclopentylcarbonyl)amino]-N-(3,4-difluorobenzyl) pyridine-3-carboxamide] | pEC50 [1, 5]: 5.00 to 6.00 |
|  |  | 6.00 to 7.00 | < 5.00 | N#Cc1cnc(NC/C=C/c2ccc3c(c2)NC(=O)/C3=C\c2cnc[nH]2)c(C(=O)O)c1 [Example 15.16, 2-((E)-3-((Z)-3-((1H-imidazol-5-yl)methylene)-2-oxoindolin-6-yl)allylamino)-5-cyanonicotinic acid] |  |
|  |  | < 5.30 | > 6.00 | Cc1[nH]c(/C=C2\C(=O)Nc3cc(/C=C/CNc4ncccc4C(=O)NCc4ccc(F)c(F)c4)ccc32)c(C)c1C(=O)O [Example 15.6] |  |
| > 7.00 | 5.00 to 6.00 |  |  | Nc1ncc(-c2ccc(CNc3ncc(C(F)(F)F)cc3C(=O)Nc3ccc(F)cc3)cc2)nc1CC[C@@H]1CCCN1 [Example 75, 2-{4-[5-Amino-6-((S)-2-pyrrolidin-2-yl-ethyl)-pyrazin-2-yl]-benzylamino}-N-(4-fluoro-phenyl)-5-trifluoromethyl-nicotinamide] |  |
|  |  | 6.00 to 7.00 |  | C[C@H](NC(=O)c1cccnc1NCc1ccc(-c2ccc3ncc(-n4ccnc4N)nc3c2)s1)c1ccc(F)c(F)c1 [Example 4.32, (S)-2-(((5-(3-(2-amino-1H-imidazol-1-yl)quinoxalin-6-yl)thiophen-2-yl)methyl)amino)-N-(1-(3,4-difluorophenyl)ethyl) nicotinamide] | pEC50 [1, 5]: < 5.00 |
|  |  | > 7.00 | < 5.00 | Nc1ncnc2ccc(-c3ccc(CNc4nccnc4C(=O)NCc4ccc(F)cc4F)s3)cc12 [Example 3.75, 3-({[5-(4-aminoquinazolin-6-yl)thiophen-2-yl]methyl}amino)-N-(2,4-difluorobenzyl)pyrazine-2-carboxamide (TFA salt)] |  |
|  |  | 6.00 to 7.00 | 5.00 to 6.00 | C[C@H](NC(=O)c1cccnc1NCc1ccc(-c2ccc3ncnc(N4CC(C)(O)C4)c3c2)s1)c1ccc(F)c(F)c1 [Example 4.37] |  |
|  |  | > 7.00 | 5.00 to 6.00 | CC(C)Oc1cc(CNc2ncccc2C(=O)N[C@@H](C)c2ccccc2)cc(-c2c[nH]c3ncc(C(=O)NC4CC4)cc23)c1 [Example 4.1.13, N-cyclopropyl-3-[3-{[(3-{[(1S)-1-phenylethyl]carbamoyl}pyridin-2-yl)amino]methyl}-5-(propan-2-yloxy)phenyl]-1H-pyrrolo[2,3-b] pyridine-5-carboxamide] |  |
|  |  | > 7.00 | > 6.00 | C[C@H](NC(=O)c1cn(-c2ccccn2)nc1NCc1ccc(-c2ccc3ncnc(N)c3c2)s1)c1ccc(F)c(F)c1 [Ex. 11.3] |  |
|  |  | 6.00 to 7.00 | < 5.00 | CC(C)Oc1cc(CNc2ncccc2C(=O)NCc2ccc(F)c(F)c2)cc(-c2ccc3ncncc3c2)c1 [Example 5.3, N-(3,4-difluorobenzyl)-2-(3-isopropoxy-5-(quinazolin-6-yl)benzylamino) nicotinamide] |  |
| > 7.00 |  |  |  | C[C@H](NC(=O)c1nc(C#N)cnc1NCc1ccc(-c2cnc(N)c(CCC3CCNC3)n2)cc1)c1ccc(F)c(F)c1 (single isomer, unassigned) [Example 79] | pEC50 ([1]; PC-3, 2 h, inhibition of P308 Akt in PC-3 cells using MSD): > 6.00 |
| > 7.00 | > 6.00 |  |  | Nc1ncc(-c2ccc(CNc3ncc(C(F)(F)F)cc3C(=O)Nc3ccc(F)cc3)cc2)nc1NCC(O)CO (stereo not shown) [Example 245, 2-{4-[5-Amino-6-(2,3-dihydroxy-propylamino)-pyrazin-2-yl]-benzylamino}-N-(4-fluoro-phenyl)-5-trifluoromethyl-nicotinamide] |  |
|  |  | 6.00 to 7.00 |  | O=C(Nc1ccc(F)c(F)c1)c1cccnc1NCc1cccc(-c2c[nH]c3ncccc23)c1 [Example 1.14, N-(3,4-difluorophenyl)-2-{[3-(1H-pyrrolo[2,3-b]pyridin-3-yl)benzyl]amino}pyridine-3-carboxamide] | pEC50 [1, 5]: 5.00 to 6.00 |
| 5.30 to 6.00 | < 5.00 |  |  | Nc1n[nH]c2ncc(-c3ccc(CNc4ncc(C(F)(F)F)cc4C(=O)N[C@H](CO)c4ccc(Br)cc4)cc3)cc12 [Example 437, (S)-2-(4-(3-amino-1H-pyrazolo[3,4-b]pyridin-5-yl)benzylamino)-N-(1-(4-bromophenyl) 2-hydroxyethyl)-5-(trifluoromethyl)nicotinamide] |  |
| > 7.00 | 5.00 to 6.00 |  |  | CCn1cc(-c2ccc(CNc3ncc(C(F)(F)F)cc3C(=O)Nc3ccc(F)cc3)cc2)c2c(N)ncnc21 [Example 430, 2-(4-(4-amino-7-ethyl-7H-pyrrolo[2,3-d]pyrimidin-5-yl)benzylamino)-N-(4-fluorophenyl)-5-(trifluoromethyl)nicotinamide] |  |
| > 7.00 | > 6.00 |  |  | C[C@H](NC(=O)c1nc(C#N)cnc1N[C@H](C)c1ccc(-c2cn(C)c3ncnc(N)c23)cc1)c1ccc(F)c(F)c1 [Example 399, 3-((R)-1-(4-(4-amino-7-methyl-7H-pyrrolo[2,3-d]pyrimidin-5-yl)phenyl)ethylamino)-6-cyano-N-((S)-1-(3,4-difluorophenyl)ethyl)pyrazine-2-carboxamide] |  |
| > 7.00 | 5.00 to 6.00 |  |  | C[C@H](NC(=O)c1cc(C#N)cnc1NCc1ccc(-c2cnc(N)c(C(=O)NCCCN(C)C)n2)cc1)c1ccc(F)cc1 [Example 211] |  |
|  |  | < 5.30 | 5.00 to 6.00 | COc1cc2ncnc(-c3ccc(CNc4ncccc4C(=O)N[C@@H](C)c4ccc(F)cc4)s3)c2cc1OC [Example 2.12, (S)-2-(((5-(6,7-dimethoxyquinazolin-4-yl)thiophen-2-yl)methyl)amino)-N-(1-(4-fluorophenyl)ethyl) nicotinamide] |  |
|  |  | > 7.00 | 5.00 to 6.00 | CC(=O)Nc1cnc(NCc2ccc(-c3ccc4ncnc(N)c4c3)s2)c(C(=O)NCc2ccc(F)c(F)c2)c1 [Ex. 8.5.1, 5-(acetylamino)-2-({[5-(4-aminoquinazolin-6-yl)thiophen-2-yl]methyl}amino)-N-(3,4-difluorobenzyl)pyridine-3-carboxamide] |  |
|  |  | 6.00 to 7.00 |  | Nc1ncnc2ccc(-c3ccc(CNc4ncccc4C(=O)NCc4cccc(Cl)c4)s3)cc12 [Example 3.27, 2-({[5-(4-aminoquinazolin-6-yl)thiophen-2-yl]methyl}amino)-N-(3-chlorobenzyl) pyridine-3-carboxamide (TFA salt)] | pEC50 [1, 5]: < 5.00 |
| 5.30 to 6.00 | 5.00 to 6.00 |  |  | Cn1cnc(CNC(=O)c2cc(C(F)(F)F)cnc2NCc2ccc(-c3cnc4[nH]nc(N)c4c3)cc2)c1 [Example 270, 2-(4-(3-amino-1H-pyrazolo [3,4-b]pyridin-5-yl)benzylamino)-N-((1-methyl-1H-imidazol-4-yl)methyl)-5-(trifluoromethyl) nicotinamide] |  |
| > 7.00 | 5.00 to 6.00 |  |  | CC(C)Oc1cc(CNc2ncccc2C(=O)NCc2ccc(F)c(F)c2)cc(-c2c[nH]c3ncc(-c4ccn[nH]4)cc23)c1 [Example 53, 2-(3-(5-(1H-pyrazol-5-yl)-1H-pyrrolo[2,3-b]pyridin-3-yl)-5-isopropoxybenzylamino)-N-(3,4-difluorobenzyl)nicotinamide] |  |
|  |  | 6.00 to 7.00 | 5.00 to 6.00 | C[C@H](NC(=O)c1cc(F)cnc1NCc1ccc(-c2cc3c(N)ncnc3cn2)s1)c1ccc(F)cc1 |  |

— patent US10030016B2 (Sunesis Pharmaceuticals, Inc., priority 2009, dated 2018)
